Key:
Assay type in all cases: in vivo
[1] = system: phorbol-induced inflammation (edema) of mouse ears; assay: Inhibition of phorbol (PMA)-induced mouse ear edema, standard protocol (topical); conditions: for Inhibition of Mouse Ear Edema: 3 h 20 min, relative to PMA control
Description: (§1) Cyclomarin-A was tested by measuring inhibition of phorbol-induced inflammation (edema) of mouse ears. […] The compound is topically applied in acetone to the inside pinnae of the ears of mice in a solution containing the edema-causing irritant, i.e. phorbol 12-myristate 13-acetate (PMA). PMA alone (2 microgram per ear) or in combination with varying amounts of cyclomarin-A was applied to the left ears of (5 mice per treatment group). Acetone was applied to all right ears. After a 3-hour and 20-minute incubation at 23° C., the mice were sacrificed, the ears removed and bores taken and weighed. Edema was measured by subtracting the weight of the right ear (acetone control) from the weight of the left ear (treated). The results were recorded as a percent decrease (inhibition) or percent increase (potentiation) in edema relative to the PMA control group edema.

[2] = system: phorbol-induced inflammation (edema) of mouse ears; assay: Inhibition of mouse ear edema, time of addition study; conditions: 50 ug/ear
Description: as §1, with “The compound is topically applied in acetone to the inside pinnae of the ears of mice in a solution containing the edema-causing irritant, i.e. phorbol 12-myristate 13-acetate (PMA).” left out

[3] = system: phorbol-induced inflammation (edema) of mouse ears; assay: Inhibition of mouse ear edema, systemic study (IP); conditions: 1 hour prior

With cyclomarin-A the “Inhibition of Mouse Ear Edema” value ([1]; 5 ug/ear topical with PMA 2 microgram per ear) was 3.0%, the “Inhibition of Mouse Ear Edema” value ([1]; 10 ug/ear topical with PMA 2 microgram per ear) was 39.0% and the “Inhibition of Mouse Ear Edema” value ([1]; 25 ug/ear topical with PMA 2 microgram per ear) was 57.0%. For the same substance, the “Inhibition of Mouse Ear Edema” value ([1]; 50 ug/ear topical with PMA 2 microgram per ear) was 88.0%, the “Inhibition of Mouse Ear Edema” value ([1]; 100 ug/ear topical with PMA 2 microgram per ear) was 96.2% and the topical anti-inflammatory activity ([1]; topical, statement in words) was “exhibit topical anti-inflammatory activity”. For the same substance, the “Inhibition of Mouse Ear Edema” value ([2]; time of addition 0 mins) was 82.8%, the “Inhibition of Mouse Ear Edema” value ([2]; time of addition +30 mins) was 50.9% and the “Inhibition of Mouse Ear Edema” value ([2]; time of addition +60 mins) was 12.0%. The “Inhibition of Mouse Ear Edema” value ([2]; time of addition -30 mins) was 79.4%, the “Inhibition of Mouse Ear Edema” value ([2]; time of addition -60 mins) was 51.8% and the “Inhibition of Mouse Ear Edema” value ([3]; 25 mg/kg IP) was 28.0%. The “Inhibition of Mouse Ear Edema” value ([3]; 50 mg/kg IP) was 55.0% and the “Inhibition of Mouse Ear Edema” value ([3]; 100 mg/kg IP) was 48.0%.
